The values that follow are results of earlier work, collected in patent publication US7163956B2, “Substituted fullerene compositions and their use as antioxidants” (C Sixty Inc., priority 2003, dated 2007).

For the data set, the system named is mice. Particulars: oral administration, about 0.5 mg/kg/day.

As to (C60(>C(COOH)2)3) [C3], the “increase in mean survival relative to controls” value is given as around 20%. The mean survival (controls 23.5+/−5.5 months, p=0.033) was 28.7+/−3.3 months.
